Measurements: patent US12419811B2, “Hydrogel drug delivery composition” (Board of Regents of the University of Nebraska, priority 2019, dated 2025)

Tests used:
[1] = system: experimental periodontitis; test: BIO hydrogels in rat experimental periodontitis, micro-CT of periodontal bone and femur; format: in vivo, Sprague Dawley rats; details: 100 μM BIO, week 4
From the text: Ten-month-old female Sprague Dawley rats (retired breeders, Envigo) were acclimated for one week prior to experiment. […] Using silk ligatures, the experimental periodontitis was induced as described previously^[32, 38]. Briefly, rats were first anesthetized in an isoflurane chamber with a 1% to 4% isoflurane in 100% O2. After taking the body weight, the rats were positioned with a nose cone supplied with 0.5% to 2% isoflurane and 100% O2 to maintain anesthesia during the entire procedure. To induce experimental periodontitis, a 4-0 silk ligature was gently tightened subgingivally around the maxillary 2nd molars (M2). Following ligature placement, different treatments (10 μL) were locally delivered between the maxillary 1st molar (M1) and 2nd molar (M2) once each week for 3 weeks. After one week, the ligatures were removed. All animals were euthanized at week 4. The entire palate including all three molars was dissected and fixed in 10% formalin prior to micro-CT and histological analyses. […] All palate samples (including all three molars) were evaluated for alveolar bone quality using a high-resolution X-ray microtomography system (Skyscan 1172, Bruker, Kontich, Belgium), references to previous studies^[32, 38]. […] To evaluate bone erosion, the distance from cementoenamel junction (CEJ) to alveolar bone crest (ABC) was determined using Skyscan Data viewer software. […] The ROI was determined from the distopalatal of M1 to the mesiopalatal of M2 (length), 130 slices below the CEJ of M1 and M2 (height), and from the palatal side to the buccal side of M1 and M2 (width). […] For bone quality analysis, a consistent polygonal ROI of trabecular bone at the distal femur was selected and the ROI was determined from 20 slices to 100 slices proximal to the growth plate. The bone histomorphometric parameters, including mean bone volume (BV), bone volume/tissue volume (BV/TV), trabecular thickness (Tb.Th) and bone mineral density (BMD) were determined using CT-Analyzer software.

β-catenin = test: BIO hydrogels in rat experimental periodontitis, IHC staining of β-catenin; format: in vivo, Sprague Dawley rats; details: between M1 and M2
From the text: (§1) Ten-month-old female Sprague Dawley rats (retired breeders, Envigo) were acclimated for one week prior to experiment. […] Using silk ligatures, the experimental periodontitis was induced as described previously^[32, 38]. Briefly, rats were first anesthetized in an isoflurane chamber with a 1% to 4% isoflurane in 100% O2. After taking the body weight, the rats were positioned with a nose cone supplied with 0.5% to 2% isoflurane and 100% O2 to maintain anesthesia during the entire procedure. To induce experimental periodontitis, a 4-0 silk ligature was gently tightened subgingivally around the maxillary 2nd molars (M2). […] To probe the presence of inflammatory cells between M1 and M2 and osteoclasts in the alveolar crest, a pathologist (SML) blind to experimental group assignment, evaluated the slides semi-quantitatively using an Olympus BX53 microscope. A semi-quantitative scoring system^[32, 40, 41] was used to evaluate inflammatory cells, where 0 is negative, 1 is less than 30% of the affected tissues, 2 is some inflammatory cells (30-60%), and 3 is many inflammatory cells (>60%). Similarly, osteoclasts on the alveolar crest were evaluated using a semi-quantitative scoring system^[32,42] where 0 is negative, 1 is a few osteoclasts lining less than 5% of alveolar bone surface, 2 is some osteoclasts (5-25%), and 3 is many osteoclasts (25-50%). […]

[2] = In vitro release of BIO from PF127 hydrogel (membrane-less); format: physicochemical; details: 37° C.
Experimental: After gelation, 2 mL of phosphate-buffered saline (PBS; pH 7.4) containing 0.5% Tween 80 pre-equilibrated at 37° C. were gently laid over the surface of the hydrogels and incubated in a water bath at 37° C. with continuous gentle shaking. […] The release study was performed in triplicate.

[3] = system: experimental periodontitis; test: BIO hydrogels in rat experimental periodontitis, H&E histology scores; format: in vivo, Sprague Dawley rats
From the text: as §1

[4] = 10 μL local once each week for 3 weeks

O=C1Nc2cc(Br)ccc2/C1=C1/Nc2ccccc2/C1=N\O [BIO, 6-bromoindirubin-3′-oxime]
linear distance CEJ to ABC (alveolar bone loss) ([1]; 10 μL local between M1 and M2 once each week for 3 weeks): did not show a statistically significant difference comparing to the saline-treated group
Bone volume (BV) of alveolar bone [1, 4]: No statistically significant difference
trabecular thickness (Tb.Th) of alveolar bone [1, 4]: No statistically significant difference
β-Catenin positive cell score (0-3) (β-catenin): not significantly different (P>0.05) from the saline Con-, PF127, and healthy Con+ group
burst release of BIO ([2]; from 20% w/v PF127 hydrogel, first 3 hr): ~50%
total release of BIO ([2]; from 20% w/v PF127 hydrogel, in 24 hr): ~99%
BIO release profile ([2]; from 25% w/v PF127 hydrogel): burst release in the first 12 hr followed by a sustained release in the next 48 hr
duration of sustained BIO release ([2]; from 30% w/v PF127 hydrogel): over 48 hr
osteoclast score (semi-quantitative, 0-3) ([3]; alveolar crest, after three weeks of treatment): significantly lower than the saline Con-group
inflammatory cell score (semi-quantitative, 0-3) ([3]; between M1 and M2, after three weeks of treatment): statistically significant difference (P<0.01) only when compared to the saline Con-group
